In US20060069132A1, “Azolecarboxamide herbicides” (priority 2004, published 2006):

Legend:
barnyardgrass = assay: Test C flooded paddy test; assay type: in vivo, Echinochloa crus-galli
Method in brief: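 Injury scored visually against controls on a 0 (no effect) to 100 (complete control) scale, 12 to 14 days after treatment in greenhouse. Flooded paddy plants treated at 2-leaf stage; postemergence plants at 1- to 4-leaf stage, 2 to 18 cm tall.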

redroot pigweed = assay: Test A pre-/postemergence herbicide test; assay type: in vivo, Amaranthus retroflexus; conditions: for Plant response rating, Pigweed: Postemergence; for Pigweed plant response rating: Preemergence
Method in brief: (§1)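 Both application timings were run together: directed soil spray over freshly planted seeds in sandy loam, and runoff spray onto 2–10 cm seedlings. Evaluation after ~10 days in greenhouse used a 0–100 visual scale versus untreated controls.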

cocklebur = assay: Test C pre-/postemergence herbicide test; assay type: in vivo, Xanthium strumarium; conditions: for Plant response rating, Cocklebur: visual, 12 to 14 days
Method in brief: (§2)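 Emerged plants at the 1- to 4-leaf stage (2–18 cm), or freshly planted seeds, received test chemicals in a non-phytotoxic solvent mixture with surfactant. Response was visually scored against controls after 12 to 14 days in the greenhouse, on a 0 (no effect) to 100 (complete control) scale.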

bermudagrass = assay: Test C pre-/postemergence herbicide test; assay type: in vivo, Cynodon dactylon; conditions: for Plant response rating, Bermudagrass: visual, 12 to 14 days
Method in brief: as §2

velvetleaf [1] = assay: Test C pre-/postemergence herbicide test; assay type: in vivo, Abutilon theophrasti
Method in brief: as §2

corn = assay: Test C pre-/postemergence herbicide test; assay type: in vivo, Zea mays; conditions: for Plant response rating, Corn: visual, 12 to 14 days
Method in brief: as §2

morningglory = assay: Test C pre-/postemergence herbicide test; assay type: in vivo, Ipomoea coccinea; parameters: key to Plant response rating, Morningglory: 0 = no effect, 100 = complete control
Method in brief: as §2

goosegrass = assay: Test C pre-/postemergence herbicide test; assay type: in vivo, Eleusine indica
Method in brief: as §2

velvetleaf [2] = assay: Test A pre-/postemergence herbicide test; assay type: in vivo, Abutilon theophrasti; conditions: for Velvetleaf plant response rating: Preemergence, visual rating, 0 to 100 scale (0 no effect, 100 complete control)
Method in brief: as §1

woolly cupgrass = assay: Test C pre-/postemergence herbicide test; assay type: in vivo, Eriochloa villosa; conditions: for Plant response rating, Cupgrass, Woolly: visual, 12 to 14 days
Method in brief: as §2

yellow nutsedge = assay: Test C pre-/postemergence herbicide test; assay type: in vivo, Cyperus esculentus
Method in brief: as §2

kochia = assay: Test C pre-/postemergence herbicide test; assay type: in vivo, Kochia scoparia
Method in brief: as §2

soybean = assay: Test C pre-/postemergence herbicide test; assay type: in vivo, Glycine max
Method in brief: as §2

giant foxtail = assay: Test C pre-/postemergence herbicide test; assay type: in vivo, Setaria faberi; conditions: for Plant response rating, Foxtail, Giant: visual, 12 to 14 days
Method in brief: as §2

[3] = 2000 g ai/ha, 0 to 100 scale, 0 no effect, 100 complete control
[4] = 125 g ai/ha, scale 0 (no effect) to 100 (complete control), preemergence
[5] = 250 g ai/ha, scale 0 to 100 (0 no effect, 100 complete control), preemergence
[6] = Preemergence, 500 g ai/ha, scale 0 to 100, 0 no effect, 100 complete control
[7] = 125 g ai/ha, scale 0 (no effect) to 100 (complete control), visual, 12 to 14 days, preemergence

Compound: CCn1nc(C(C)(C)C)cc1C(=O)Nc1cccc2c1CCN(C1CC1)C2=O [Compound 64]
- Barnyardgrass plant response rating (barnyardgrass; 62 g ai/ha, scale 0 to 100 (0 no effect, 100 complete control)): 0
- Barnyardgrass plant response rating (barnyardgrass; 125 g ai/ha, scale of 0 to 100, 0 is no effect, 100 is complete control): 0
- Barnyardgrass plant response rating (barnyardgrass; 250 g ai/ha, scale of 0 to 100, 0 is no effect, 100 is complete control): 0
- Plant response rating, Barnyardgrass (barnyardgrass; 500 g ai/ha, visual rating after 12 to 14 days, scale 0 to 100 (0 no effect, 100 complete control)): 35
- Plant response rating, Pigweed (redroot pigweed; 500 g ai/ha, 0 to 100 scale, 0 no effect, 100 complete control): 65
- Plant response rating, Pigweed (redroot pigweed; [3]): 95
- Pigweed plant response rating (redroot pigweed; 500 g ai/ha, visual rating, 0 to 100 scale (0 no effect, 100 complete control)): 100
- Pigweed plant response rating (redroot pigweed; [3]): 100
- Plant response rating (0 = no effect, 100 = complete control), Cocklebur (cocklebur; 62 g ai/ha, preemergence): 0
- Plant response rating, Cocklebur (cocklebur; [4]): 0
- Plant response rating, Cocklebur (cocklebur; [5]): 0
- Cocklebur plant response rating (cocklebur; [6]): 0
- Plant response rating (0 = no effect, 100 = complete control), Bermudagrass (bermudagrass; 62 g ai/ha, preemergence): 0
- Plant response rating, Bermudagrass (bermudagrass; [4]): 30
- Plant response rating, Bermudagrass (bermudagrass; [5]): 85
- Bermudagrass plant response rating (bermudagrass; [6]): 90
- Plant response rating, Velvetleaf (velvetleaf [1]; [7]): 30
- Velvetleaf plant response rating (velvetleaf [1]; [6]): 60
- Plant response rating (0 = no effect, 100 = complete control), Corn (corn; 62 g ai/ha, preemergence): 0
- Plant response rating, Corn (corn; [4]): 0
- Plant response rating, Corn (corn; [5]): 0
- Corn plant response rating (corn; [6]): 30
- Plant response rating (0 = no effect, 100 = complete control), Morningglory (morningglory; 62 g ai/ha, preemergence): 0
- Plant response rating, Morningglory (morningglory; [7]): 0
- Morningglory plant response rating (morningglory; [6]): 0
- Plant response rating (0 = no effect, 100 = complete control), Goosegrass (goosegrass; 62 g ai/ha, preemergence): 0
- Plant response rating, Goosegrass (goosegrass; [7]): 10
- Goosegrass plant response rating (goosegrass; [6]): 70
- Plant response rating, Velvetleaf (velvetleaf [2]; Postemergence, 2000 g ai/ha, 0 to 100 scale, 0 no effect, 100 complete control): 30
- Velvetleaf plant response rating (velvetleaf [2]; 500 g ai/ha): 10
- Velvetleaf plant response rating (velvetleaf [2]; 2000 g ai/ha): 35
- Plant response rating (0 = no effect, 100 = complete control), Cupgrass, Woolly (woolly cupgrass; 62 g ai/ha, preemergence): 0
- Plant response rating, Cupgrass, Woolly (woolly cupgrass; [4]): 0
- Plant response rating, Cupgrass, Woolly (woolly cupgrass; [5]): 0
- Cupgrass, Woolly plant response rating (woolly cupgrass; [6]): 10
- Plant response rating (0 = no effect, 100 = complete control), Nutsedge, Yellow (yellow nutsedge; 62 g ai/ha, preemergence): 0
- Plant response rating, Nutsedge, Yellow (yellow nutsedge; [7]): 0
- Nutsedge, Yellow plant response rating (yellow nutsedge; [6]): 0
- Plant response rating (0 = no effect, 100 = complete control), Kochia (kochia; 62 g ai/ha, preemergence): 0
- Plant response rating, Kochia (kochia; [7]): 20
- Kochia plant response rating (kochia; [6]): 60
- Plant response rating (0 = no effect, 100 = complete control), Soybean (soybean; 62 g ai/ha, preemergence): 0
- Plant response rating, Soybean (soybean; [7]): 0
- Soybean plant response rating (soybean; [6]): 60
- Plant response rating (0 = no effect, 100 = complete control), Foxtail, Giant (giant foxtail; 62 g ai/ha, preemergence): 0
- Plant response rating, Foxtail, Giant (giant foxtail; [4]): 0
- Plant response rating, Foxtail, Giant (giant foxtail; [5]): 10
- Foxtail, Giant plant response rating (giant foxtail; [6]): 80
